The target of experiment [1] is soluble human BACE1 catalytic domain (Homo sapiens (Human), UniProt P56817). Put plainly: BACE-1 Ki Assay (BACE-1 HTRF FRET Assay). The settings on record: Ki calculated from IC50 using the Cheng-Prusoff equation; QSY7-APPswe-Eu substrate 200 nM, pH 5.0. It counts as biochemical. How it is done: In another embodiment, the compounds of the invention comprise the example compounds shown in the table below, or a tautomer thereof, or a pharmaceutically acceptable salt of said compound or said tautomer. Examples 2 to 42 were prepared using the method similar to Ex. 1. Example 44 to 51 were synthesized using the method similar to Ex. 43. BACE-1 values reported in this table were measured using BACE-1 Ki Assay (BACE-1 HTRF FRET Assay).
• Reagents: Na^+-Acetate pH 5.0; 1% Brij-35; Glycerol; Dimethyl Sulfoxide (DMSO); Recombinant human soluble BACE1 catalytic domain (>95% pure); APP Swedish mutant peptide substrate (QSY7-APP^swe-Eu): QSY7-EISEVNLDAEFC-Europium-amide.
A homogeneous time-resolved FRET assay can be used to determine IC50 values for inhibitors of the soluble human BACE1 catalytic domain. This assay monitors the increase of 620 nm fluorescence that resulted from BACE1 cleavage of an APPswedish APP^swe mutant peptide FRET substrate (QSY7-EISEVNLDAEFC-Europium-amide). This substrate contains an N-terminal QSY7 moiety that serves as a quencher of the C-terminal Europium fluorophore (620 nm Em). In the absence of enzyme activity, 620 nm fluorescence is low in the assay and increased linearly over 3 hours in the presence of uninhibited BACE1 enzyme. Inhibition of BACE1 cleavage of the QSY7-APP^swe-Eu substrate by inhibitors is manifested as a suppression of 620 nm fluorescence.
Varying concentrations of inhibitors at 3× the final desired concentration in a volume of 10 ul are preincubated with purified human BACE1 catalytic domain (3 nM in 10 μl) for 30 minutes at 30° C. in reaction buffer containing 20 mM Na-Acetate pH 5.0, 10% glycerol, 0.1% Brij-35 and 7.5% DSMO. Reactions are initiated by addition of 10 μl of 600 nM QSY7-APP^swe-Eu substrate (200 nM final) to give a final reaction volume of 30 μl in a 384 well Nunc HTRF plate. The reactions are incubated at 30° C. for 1.5 hours. The 620 nm fluorescence is then read on a Rubystar HTRF plate reader (BMG Labtechnologies) using a 50 millisecond delay followed by a 400 millisecond acquisition time window. Inhibitor IC50 values are derived from non-linear regression analysis of concentration response curves. Ki values are then calculated from IC50 values using the Cheng-Prusoff equation using a previously determined […] of 8 μM for the QSY7-APP^swe-Eu substrate at BACE1.

For experiment [2], the target named is purified human autoBACE-2 (Homo sapiens (Human), UniProt Q9Y5Z0). Put plainly: BACE-2 Assay (BACE-HTRF assay). To be noted: Ki calculated from IC50 using the Cheng-Prusoff equation; QSY7-EISEVNLDAEFC-Eu-amide substrate 200 nM, pH 5.0. It counts as biochemical. How it is done: Inhibitor IC50s at purified human autoBACE-2 are determined in a time-resolved endpoint proteolysis assay that measures hydrolysis of the QSY7-EISEVNLDAEFC-Eu-amide FRET peptide substrate (BACE-HTRF assay). BACE-mediated hydrolysis of this peptide results in an increase in relative fluorescence (RFU) at 620 nm after excitation with 320 nm light. Inhibitor compounds, prepared at 3× the desired final concentration in 1×BACE assay buffer (20 mM sodium acetate pH 5.0, 10% glycerol, 0.1% Brij-35) supplemented with 7.5% DMSO are pre-incubated with an equal volume of autoBACE-2 enzyme diluted in 1×BACE assay buffer (final enzyme concentration 1 nM) in black 384-well NUNC plates for 30 minutes at 30° C. […] DMSO is present at […] final concentration in the assay. Following laser excitation of sample wells at 320 nm, the fluorescence signal at 620 nm is collected for 400 ms following a 50 μs delay on a RUBYstar HTRF plate reader (BMG Labtechnologies). Raw RFU data is normalized to maximum (1.0 nM BACE/DMSO) and minimum (no enzyme/DMSO) RFU values. IC50s are determined by nonlinear regression analysis (sigmoidal dose response, variable slope) of percent inhibition data with minimum and maximum values set to 0 and 100 percent respectively. Similar IC50s are obtained when using raw RFU data. The Ki values are calculated from the IC50 using the Cheng-Prusoff equation.

For 20 compounds, Ki results are on record in patent publication US9868738B2, “Diazine-fused amidines as BACE inhibitors, compositions, and their use” (Merck Sharp & Dohme Corp., priority 2014, dated 2018).

The Ki is a dissociation constant, usually derived from enzyme kinetics or from competition with a known ligand.

Chain of purified human autoBACE-2 (Q9Y5Z0 63-473 limits assumed): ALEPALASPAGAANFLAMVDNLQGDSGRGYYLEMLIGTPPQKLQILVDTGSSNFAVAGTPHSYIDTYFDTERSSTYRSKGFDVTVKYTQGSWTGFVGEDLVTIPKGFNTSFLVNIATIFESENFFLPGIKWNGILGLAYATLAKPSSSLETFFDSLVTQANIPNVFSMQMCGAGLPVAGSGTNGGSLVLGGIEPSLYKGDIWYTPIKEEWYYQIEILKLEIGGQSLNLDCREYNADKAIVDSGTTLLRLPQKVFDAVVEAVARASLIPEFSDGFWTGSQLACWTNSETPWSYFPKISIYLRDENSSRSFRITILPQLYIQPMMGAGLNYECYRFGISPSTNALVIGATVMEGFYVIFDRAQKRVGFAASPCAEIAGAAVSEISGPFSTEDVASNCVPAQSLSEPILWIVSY
Chain of soluble human BACE1 catalytic domain (P56817 75-416): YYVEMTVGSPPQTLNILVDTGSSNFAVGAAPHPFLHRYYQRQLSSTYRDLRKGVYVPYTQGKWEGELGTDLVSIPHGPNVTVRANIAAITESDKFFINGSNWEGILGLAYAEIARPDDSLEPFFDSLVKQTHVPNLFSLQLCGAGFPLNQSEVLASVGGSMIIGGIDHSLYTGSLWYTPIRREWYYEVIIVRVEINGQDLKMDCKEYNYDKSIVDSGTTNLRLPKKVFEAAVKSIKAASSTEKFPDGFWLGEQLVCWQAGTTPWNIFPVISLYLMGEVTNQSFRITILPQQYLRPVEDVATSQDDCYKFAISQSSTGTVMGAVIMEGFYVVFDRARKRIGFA

Turning to `COc1cccc2cc(-c3cc(Cl)c([C@]4(C)Cc5nc(C6CC6)ncc5C(=N)N4)s3)[nH]c12` [Example 38, (7S)-7-[3-chloro-5-(7-methoxy-1H-indo1-2-yl)thiophen-2-yl]-2-cyclopropyl-7-methyl-7,8-dihydropyrido[4,3-d]pyrimidin-5(6H)-imine], the figures for the Ki in experiment [1] and in experiment [2] were 22.3 nM and 2 nM, respectively.

Take `Cc1ncc2c(n1)C[C@@](C)(c1sc(-c3cccc(-c4nnco4)c3)cc1Cl)NC2=N` [Example 26, (7S)-7-{3-chloro-5-[3-(1,3,4-oxadiazol-2-yl)phenyl]thiophen-2-yl}-2,7-dimethyl-7,8-dihydropyrido[4,3-d]pyrimidin-5(6H)-imine]: the results for the Ki in experiment [1] and in experiment [2] were 10.6 nM and 29.1 nM, respectively.

On to `Cc1ncc2c(n1)C[C@](c1cc(NC(=O)c3ccc(C#N)cn3)ccc1F)(C(F)F)NC2=N` [Example 50, 5-cyano-N-{3-[(7S)-7-(difluoromethyl)-5-imino-2-methyl-5,6,7,8-tetrahydropyrido[4,3-d]pyrimidin-7-yl]-4-fluorophenyl}pyridine-2-carboxamide], for which the Ki is 7.1 nM in experiment [1] and 10.9 nM in experiment [2].

`C[C@]1(c2cc(-c3cccc(C#N)c3)cs2)NC(=N)c2cncnc2C1(F)F` [Example 18, 3-{5-[(7S)-8,8-difluoro-5-imino-7-methyl-5,6,7,8-tetrahydropyrido[4,3-d]pyrimidin-7-yl]thiophen-3-yl}benzonitrile]: the Ki in experiment [1] is 81.5 nM; in experiment [2], 39.8 nM.

As for `C[C@@]1(c2sc(-c3cccc(C#N)c3)cc2Cl)Cc2nc(C3CC3)ncc2C(=N)N1` [Example 36, 3-{4-chloro-5-[(7S)-2-cyclopropyl-5-imino-7-methyl-5,6,7,8-tetrahydropyrido[4,3-d]pyrimidin-7-yl]thiophen-2-yl}benzonitrile], the Ki is 48.9 nM in experiment [1] and 21.5 nM in experiment [2].

As for `C[C@@]1(c2cc(-c3cncc(C#N)c3)ccc2F)Cc2ncncc2C(=N)N1` [Example 9, 5-{4-fluoro-3-[(7S)-5-imino-7-methyl-5,6,7,8-tetrahydropyrido[4,3-d]pyrimidin-7-yl]phenyl}pyridine-3-carbonitrile], the Ki in experiment [1] is 601 nM; in experiment [2], 483 nM.

As to `C[C@@]1(c2cc(NC(=O)c3ccc(F)cn3)ccc2F)Cc2ncncc2C(=N)N1` [Example 43, 5-fluoro-N-{4-fluoro-3-[(7S)-5-imino-7-methyl-5,6,7,8-tetrahydropyrido[4,3-d]pyrimidin-7-yl]phenyl}pyridine-2-carboxamide], the Ki in experiment [1] is 9.4 nM; in experiment [2] it was 3 nM.

On to `Cc1ncc2c(n1)C[C@@](C)(c1sc(-c3cc(F)cc(-c4nnco4)c3)cc1Cl)NC2=N` [Example 28, (7S)-7-{3-chloro-5-[3-fluoro-5-(1,3,4-oxadiazol-2-yl)phenyl]thiophen-2-yl}-2,7-dimethyl-7,8-dihydropyrido[4,3-d]pyrimidin-5(6H)-imine], for which the inhibition constant (Ki) in experiment [1] was 16.6 nM; in experiment [2], 24.4 nM.

On to `C[C@]1(c2sc(-c3cccc(-c4nnco4)c3)cc2Cl)NC(=N)c2cncnc2C1(F)F` [Example 20, (7S)-7-{3-chloro-5-[3-(1,3,4-oxadiazol-2-yl)phenyl]thiophen-2-yl}-8,8-difluoro-7-methyl-7,8-dihydropyrido[4,3-d]pyrimidin-5(6H)-imine], for which the inhibitory constant (Ki) is 33.3 nM in experiment [1] and 118 nM in experiment [2].

As for `COc1cccc2cc(-c3csc([C@]4(C)Cc5nc(C6CC6)ncc5C(=N)N4)c3)[nH]c12` [Example 33, (7S)-2-cyclopropyl-7-[4-(7-methoxy-1H-indo1-2-yl)thiophen-2-yl]-7-methyl-7,8-dihydropyrido[4,3-d]pyrimidin-5(6H)-imine], the Ki was 38.2 nM in experiment [1] and 4.8 nM in experiment [2].

Consider `C[C@@]1(c2cc(-c3cccc(C#N)c3)cs2)Cc2nc(C3CC3)ncc2C(=N)N1` [Example 32, 3-{5-[(7S)-2-cyclopropyl-5-imino-7-methyl-5,6,7,8-tetrahydropyrido[4,3-d]pyrimidin-7-yl]thiophen-3-yl}benzonitrile], for which the figures for the Ki in experiment [1] and in experiment [2] were 128 nM and 65.6 nM, respectively.

On to `C[C@@]1(c2cc(-c3cccc(-c4nnco4)c3)cs2)Cc2nc(C(F)(F)F)ncc2C(=N)N1` [Example 42, (7S)-7-methyl-7-{4-[3-(1,3,4-oxadiazol-2-yl)phenyl]thiophen-2-yl}-2-(trifluoromethyl)-7,8-dihydropyrido[4,3-d]pyrimidin-5(6H)-imine], for which the inhibitory constant (Ki) in experiment [1] is 49.6 nM; in experiment [2], 121 nM.

Consider `C[C@@]1(c2cc(-c3cccnc3)ccc2F)Cc2ncncc2C(=N)N1` [Example 10, (7S)-7-(2-fluoro-5-pyridin-3-ylphenyl)-7-methyl-7,8-dihydropyrido[4,3-d]pyrimidin-5(6H)-imine], for which the values for the inhibition constant Ki in experiment [1] and in experiment [2] were 746 nM and 1180 nM, respectively.

As to `COc1ccc(C(=O)Nc2ccc(F)c([C@]3(C)Cc4nc(C)ncc4C(=N)N3)c2)nc1` [Example 47, N-{4-fluoro-3-[(7S)-5-imino-2,7-dimethyl-5,6,7,8-tetrahydropyrido[4,3-d]pyrimidin-7-yl]phenyl}-5-methoxypyridine-2-carboxamide], the Ki in experiment [1] was 15.4 nM; in experiment [2], 15.3 nM.

Regarding `C[C@@]1(c2cc(NC(=O)c3ccc(F)cn3)ccc2F)Cc2nc(C3CC3)ncc2C(=N)N1` [Example 48, N-{3-[(7S)-2-cyclopropyl-5-imino-7-methyl-5,6,7,8-tetrahydropyrido[4,3-d]pyrimidin-7-yl]-4-fluorophenyl}-5-fluoropyridine-2-carboxamide], the inhibitory constant (Ki) in experiment [1] is 13.1 nM; in experiment [2], 3 nM.

Turning to `C[C@@]1(c2sc(-c3cncc(C#N)c3)cc2Cl)Cc2ncncc2C(=N)N1` [Example 14, 5-{4-chloro-5-[(7S)-5-imino-7-methyl-5,6,7,8-tetrahydropyrido[4,3-d]pyrimidin-7-yl]thiophen-2-yl}pyridine-3-carbonitrile], the Ki was 75.2 nM in experiment [1] and 31.6 nM in experiment [2].

Turning to `Cc1ncc2c(n1)C[C@@](C)(c1sc(-c3cncc(C#N)c3)cc1Cl)NC2=N` [Example 25, 5-{4-chloro-5-[(7S)-5-imino-2,7-dimethyl-5,6,7,8-tetrahydropyrido[4,3-d]pyrimidin-7-yl]thiophen-2-yl}pyridine-3-carbonitrile], the inhibitory constant (Ki) in experiment [1] was 125 nM; in experiment [2], 62.4 nM.

For `C[C@@]1(c2sc(-c3cc(F)cc(-c4nnco4)c3)cc2Cl)Cc2ncncc2C(=N)N1` [Example 17, (7S)-7-{3-chloro-5-[3-fluoro-5-(1,3,4-oxadiazol-2-yl)phenyl]thiophen-2-yl}-7-methyl-7,8-dihydropyrido[4,3-d]pyrimidin-5(6H)-imine], the Ki in experiment [1] is 16.5 nM; in experiment [2], 21.6 nM.

As to `Cc1ncc2c(n1)C[C@@](C)(c1sc(-c3ccc(F)c(C#N)c3)cc1Cl)NC2=N` [Example 27, 5-{4-chloro-5-[(7S)-5-imino-2,7-dimethyl-5,6,7,8-tetrahydropyrido[4,3-d]pyrimidin-7-yl]thiophen-2-yl}-2-fluorobenzonitrile], the Ki in experiment [1] was 52.1 nM; in experiment [2], 28.3 nM.

Regarding `C[C@]1(c2sc(-c3cccc(C#N)c3)cc2Cl)NC(=N)c2cncnc2C1(F)F` [Example 19, 3-{4-chloro-5-[(7S)-8,8-difluoro-5-imino-7-methyl-5,6,7,8-tetrahydropyrido[4,3-d]pyrimidin-7-yl]thiophen-2-yl}benzonitrile], the inhibition constant Ki in experiment [1] was 246 nM; in experiment [2], 128 nM.
